Measured values as given in ChEMBL document CHEMBL1201862, “PubChem BioAssay data set” (2004).
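Step 1: Grow cells in 96-well plates. Step 2: Expose to compound for 48 hours at 5 concentrations. Step 3: Interpolate endpoints linearly; if unreached, use highest concentration. GI50 = concentration required for 50% inhibition of growth.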 Calls of active or inactive are those of the source. Cut-off read from the data, not from the text of the source: active = GI50 up to about 1.1 µM and inactive = higher.

Tests used:
Assay in all cases: inhibition of tumour cell growth, NCI panel, 48 h
DLD-1 = test system: DLD-1
DMS-114 = test system: DMS-114
DMS-273 = test system: DMS-273
HOP-18 = test system: HOP-18
KM-20L2 = test system: KM-20L2
M19-MEL = test system: M19-MEL
RXF 631 = test system: RXF 631
SNB-78 = test system: SNB-78
Hs-578T = test system: Hs-578T

SMILES | GI50 (DLD-1) | GI50 (DMS-114) | GI50 (DMS-273) | GI50 (HOP-18) | GI50 (KM-20L2) | GI50 (M19-MEL) | GI50 (RXF 631) | GI50 (SNB-78) | GI50 (Hs-578T)
CN1C2(c3ccccc3)c3c(-c4ccccc4)sc(-c4ccccc4)c3C1(c1ccccc1)C1C(=O)N(c3ccccc3)C(=O)C12 (stereo not given) | > 100 µM (inactive) | > 100 µM (inactive) | > 100 µM (inactive) | > 100 µM (inactive) | > 100 µM (inactive) | > 100 µM (inactive) | > 100 µM (inactive) | > 100 µM (inactive) | 
CC(=O)NNc1nc(C)c(C(=O)/C=C/c2ccc(Cl)c(Cl)c2)s1 | > 100 µM (inactive) | > 100 µM (inactive) | > 100 µM (inactive) | > 100 µM (inactive) | > 100 µM (inactive) | > 100 µM (inactive) | > 100 µM (inactive) | > 100 µM (inactive) | 
CN(C)/C=N\c1cc[nH]c(=O)n1 | > 100 µM (inactive) | > 100 µM (inactive) | > 100 µM (inactive) | > 100 µM (inactive) | > 100 µM (inactive) | > 100 µM (inactive) | > 100 µM (inactive) | > 100 µM (inactive) | 
O=c1ccccc2cccc(O)c12 | > 100 µM (inactive) | > 100 µM (inactive) | > 100 µM (inactive) | > 100 µM (inactive) | > 100 µM (inactive) | > 100 µM (inactive) | > 100 µM (inactive) | > 100 µM (inactive) | 
O=c1ccn([C@H]2CSC[C@@H](CO)C2)c(=O)[nH]1 | > 100 µM (inactive) | > 100 µM (inactive) | > 100 µM (inactive) | > 100 µM (inactive) | > 100 µM (inactive) | > 100 µM (inactive) | > 100 µM (inactive) | > 100 µM (inactive) | 
Cc1ccc(NC(=O)/C(=N/NC(=O)C[N+](C)(C)C)c2nc3ccccc3nc2O)cc1 | > 100 µM (inactive) | > 100 µM (inactive) | > 100 µM (inactive) | > 100 µM (inactive) | > 100 µM (inactive) | > 100 µM (inactive) | > 100 µM (inactive) | > 100 µM (inactive) | 
COc1ccc(OCC(=O)O)c2c1CCC(C)C2=O (stereo not given) | > 100 µM (inactive) | > 100 µM (inactive) | > 100 µM (inactive) | 94.6 µM (inactive) | > 100 µM (inactive) | > 100 µM (inactive) | > 100 µM (inactive) | > 100 µM (inactive) | 
O=c1c(NO)c([N+](=O)[O-])cnn1-c1ccccc1 | 3.6 µM (inactive) | 15.8 µM (inactive) | 3.26 µM (inactive) | 22.1 µM (inactive) | 7.19 µM (inactive) | 3.67 µM (inactive) | 2.48 µM (inactive) | 16.9 µM (inactive) | < 0.01 µM (active)
